In patent publication US20110183978A1, “Phenylpyri(mi)dinylazoles” (Bayer CropScience AG, priority 2009, published 2011):

Assays:
[1] = tested on: Sphaerotheca fuliginea; experiment: Example L: in vivo test on Sphaerotheca fuliginea (powdery mildew on cucumber/protective); conditions: Podosphaera fuliginea, 168 h, cucumber, protective, assessment 7 days after inoculation, read-out: % Wirkungsgrad
Experimental: (§1) Solvent: 49 parts by weight N,N-dimethylformamide Emulsifier: 1 part by weight alkylaryl polyglycol ethers For the preparation of a suitable active substance preparation, 1 part by weight of active substance is mixed with the stated quantities of solvent and emulsifier and the concentrate is diluted to the desired concentration with water. For the testing for protective activity, young cucumber plants are sprayed with the active substance preparation at the stated application dosage. One day after the treatment, the plants are inoculated with a spore suspension of Sphaerotheca fuliginea. Next, the plants are placed in a greenhouse at 70% relative atmospheric humidity and a temperature of 23° C. 7 days after the inoculation, the assessment takes place.

[2] = tested on: Alternaria solani; experiment: Example M: in vivo test on Alternaria solani (leaf blotch disease/tomato/protective); conditions: 168 h, tomato, protective, 500 ppm active substance, assessed 7 days after inoculation, read-out: % Wirkungsgrad (activity level)
Experimental: as §1, with “tomato” for “cucumber”, “One day after the treatment, the plants are inoculated with a spore suspension of Sphaerotheca fuliginea. Next, the plants are placed in a greenhouse at 70% relative atmospheric humidity and a temperature of 23° C.” left out

[3] = physchem

chromatographic logP ([3]; LogPA) | chromatographic logP ([3]; LogPA (logP of the stated pure compound or, in a mixture, of the main isomer, 1-substituted 3-aryl-1H-pyrazole)) | Structure (SMILES) | pest or weed control at 500 ppm [1] [%] | pest or weed control at 500 ppm [2] [%]
1.57 | – | CCn1cc(-c2ccnc(NC(C)=O)c2)c(-c2ccc(F)cc2)n1 [Compound 342] | 94 | 95
1.37 | – | CC(C)C(=O)Cn1cc(-c2ccncc2)c(-c2ccc(F)cc2)n1 [Compound 178] | 75 | 94
2.12 | – | CCC(=O)Nc1cc(-c2cn(CCSC)nc2-c2ccc(F)cc2)ccn1 [Compound 300] | 90 | 80
1.56 | – | CCC(=O)Nc1cc(-c2cn(C)nc2-c2ccc(F)cc2)ccn1 [Compound 296] | 84 | 100
1.54 | – | CC(C)n1cc(-c2ccnc(N)n2)c(-c2ccc(F)cc2)n1 [Compound 366] | 94 | 80
3.54 | – | CC(c1ccccc1F)n1cc(-c2ccnc(NC(=O)CC3CC3)c2)c(-c2ccc(F)cc2)n1 (stereo not drawn) [Compound 250] | 84 | 94
1.91 | – | CC(C)C(=O)Nc1cc(-c2cn(CCC#N)nc2-c2ccc(F)cc2)ccn1 [Compound 309] | 100 | 100
2.33 | – | CCC(=O)Nc1cc(-c2c(-c3ccc(F)cc3)nn(C)c2OC(F)F)ccn1 [Compound 316] | 75 | 100
3.05 | – | COC(=O)C(C(C)C)n1cc(-c2ccnc(NC(=O)C(C)C)c2)c(-c2ccc(F)cc2)n1 (stereo not drawn) [Compound 277] | 94 | 100
2.15 | – | CCCn1cc(-c2ccnc(NC(=O)CC)c2)c(-c2ccc(F)cc2)n1 [Compound 292] | 95 | 100
2.16 | – | CCn1cc(-c2ccnc(NC(=O)C3CC3C)c2)c(-c2ccc(F)cc2)n1 (stereo not drawn) [Compound 341] | 100 | 95
2.54 | – | CCC(=O)Nc1cc(-c2cn(C(C)C3CC3)nc2-c2ccc(F)cc2)ccn1 (stereo not drawn) [Compound 301] | 95 | 95
3.17 | – | O=C(CC1CC1)Nc1cc(-c2cn(Cc3ccccc3F)nc2-c2ccc(F)cc2)ccn1 [Compound 253] | 92 | 94
1.63 | – | CCC(=O)Nc1cc(-c2cn(CCC#N)nc2-c2ccc(F)cc2)ccn1 [Compound 303] | 95 | 100
1.82 | – | CC(C)n1cc(-c2ccnc3[nH]cnc23)c(-c2ccc(F)cc2)n1 [Compound 280] | 93 | 95
2.99 | – | CC(C)OC(=O)Nc1cc(-c2cn(C(C)C)nc2-c2ccc(F)cc2)ccn1 [Compound 181] | 85 | 94
2.28 | – | CC(CC#N)n1cc(-c2ccnc(NC(=O)CC3CC3)c2)c(-c2ccc(F)cc2)n1 (stereo not drawn) [Compound 315] | 95 | 95
2.17 | – | COCC(=O)Nc1cc(-c2cn(C(C)CC#N)nc2-c2ccc(F)cc2)ccn1 (stereo not drawn) [Compound 313] | 98 | 95
1.99 | – | CC(C)C(=O)Nc1cc(-c2cn(CC3OCCO3)nc2-c2ccc(F)cc2)ccn1 [Compound 276] | 99 | 95

chromatographic logP ([3]; LogPA) | chromatographic logP ([3]; LogPA (logP of the stated pure compound or, in a mixture, of the main isomer, 1-substituted 3-aryl-1H-pyrazole)) | Structure (SMILES) | pest or weed control at 500 ppm [1] [%] | pest or weed control at 500 ppm [2] [%]
1.99 | – | CCn1cc(-c2ccnc(NC(=O)C(N)=O)c2)c(-c2ccc(F)cc2)n1 [Compound 351] | 80 | 95
2.44 | – | CSCCn1cc(-c2ccnc(NC(=O)C(C)C)c2)c(-c2ccc(F)cc2)n1 [Compound 306] | 94 | 95
1.89 | – | COCC(=O)Nc1cc(-c2cn(C)nc2-c2ccc(F)cc2)ccn1 [Compound 297] | 90 | 100
1.59 | – | CCC(=O)Nc1cc(-c2cn(CC3OCCO3)nc2-c2ccc(F)cc2)ccn1 [Compound 278] | 89 | 95
2.07 | – | Cc1c(-c2ccncc2)c(-c2ccc(F)cc2)nn1CC(C)C [Compound 368] | 94 | 95
1.49 | – | Cc1c(-c2ccncc2)c(-c2ccc(F)cc2)nn1CC(F)F [Compound 367] | 84 | 95
1.32 | – | CC(=O)Nc1cc(-c2cn(C)nc2-c2ccc(F)cc2)ccn1 [Compound 350] | 94 | 95
1.87 | – | CCC(=O)Nc1cc(-c2cn(C(C)CC#N)nc2-c2ccc(F)cc2)ccn1 (stereo not drawn) [Compound 312] | 100 | 100
2.92 | – | CC(C)Nc1nccc(-c2cn(C(C)C)nc2-c2ccc(F)cc2)n1 [Compound 371] | 94 | 95
3.03 | – | CC(C)C(=O)Nc1cc(-c2cn(Cc3ccccc3F)nc2-c2ccc(F)cc2)ccn1 [Compound 256] | 92 | 94
3.31 | – | CC(C)n1cc(-c2ccnc(NCc3ccccc3)n2)c(-c2ccc(F)cc2)n1 [Compound 369] | 88 | 90
2.12 | – | CC(C)CC(=O)Nc1cc(-c2cn(C)nc2-c2ccc(F)cc2)ccn1 [Compound 347] | 95 | 95
2.58 | – | CCCn1cc(-c2ccnc(NC(=O)COC)c2)c(-c2ccc(F)cc2)n1 [Compound 293] | 94 | 100
– | 3.03 | CC(C)Cn1cc(-c2ccnc(NC(=O)CC3CC3)c2)c(-c2ccc(F)cc2)n1 [Compound 158] | 97 | 94
1.98 | – | Cn1cc(-c2ccnc(NC(=O)CC3CC3)c2)c(-c2ccc(F)cc2)n1 [Compound 299] | 84 | 100
2.29 | – | CCn1cc(-c2ccnc(NC(=O)CC3CC3)c2)c(-c2ccc(F)cc2)n1 [Compound 291] | 95 | 100
2.68 | – | CCC(C)Nc1nccc(-c2cn(CC(C)C)nc2-c2ccc(F)cc2)n1 (stereo not drawn) [Compound 286] | 89 | 90
2.96 | – | CC(C)Cn1cc(-c2ccncc2-c2ccc(F)cc2)c(-c2ccc(F)cc2)n1 [Compound 228] | 75 | 70
